Experiments:
Human plasma kallikrein = Human plasma kallikrein (Homo sapiens (Human), UniProt P03952); assay: Kallikrein Assay (fluorogenic substrate Acetyl-K-P-R-AFC); assay type: biochemical; conditions: Plasma Kallikrein (PKal)
In short: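 Ki is derived from IC50 with the Cheng-Prusoff equation, and IC50 from the inflection point of a four-parameter logistic curve. The rate of AFC release is read with 0.5 nM purified enzyme and […] substrate at room temperature or 37 °C.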

human Factor XIa = human Factor XIa (Homo sapiens (Human), UniProt P03951); assay: Factor XIa Assay (fluorogenic substrate GPR-AFC); assay type: biochemical; conditions: Factor XIa (FXIa)
human Factor XIa, sequence (P03951 388-625 limits assumed): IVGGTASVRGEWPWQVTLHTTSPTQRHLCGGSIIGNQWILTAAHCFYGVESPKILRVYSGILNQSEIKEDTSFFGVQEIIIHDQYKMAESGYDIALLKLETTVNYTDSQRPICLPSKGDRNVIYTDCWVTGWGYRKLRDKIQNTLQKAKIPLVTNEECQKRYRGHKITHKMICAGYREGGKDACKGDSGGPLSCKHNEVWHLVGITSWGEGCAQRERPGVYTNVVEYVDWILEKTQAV
human Factor XIa, sequence (P03951 19-387 partner limits assumed): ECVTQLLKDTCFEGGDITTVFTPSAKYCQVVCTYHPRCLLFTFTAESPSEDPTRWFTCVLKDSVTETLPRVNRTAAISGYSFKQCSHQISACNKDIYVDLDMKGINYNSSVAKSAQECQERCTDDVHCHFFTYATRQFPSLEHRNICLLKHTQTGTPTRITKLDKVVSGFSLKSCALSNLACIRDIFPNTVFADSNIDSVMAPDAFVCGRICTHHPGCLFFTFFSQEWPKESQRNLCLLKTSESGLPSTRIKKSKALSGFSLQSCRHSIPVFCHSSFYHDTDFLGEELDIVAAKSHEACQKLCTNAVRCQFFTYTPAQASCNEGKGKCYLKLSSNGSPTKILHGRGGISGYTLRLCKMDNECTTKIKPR

Human plasma kallikrein, sequence (P03952 391-638): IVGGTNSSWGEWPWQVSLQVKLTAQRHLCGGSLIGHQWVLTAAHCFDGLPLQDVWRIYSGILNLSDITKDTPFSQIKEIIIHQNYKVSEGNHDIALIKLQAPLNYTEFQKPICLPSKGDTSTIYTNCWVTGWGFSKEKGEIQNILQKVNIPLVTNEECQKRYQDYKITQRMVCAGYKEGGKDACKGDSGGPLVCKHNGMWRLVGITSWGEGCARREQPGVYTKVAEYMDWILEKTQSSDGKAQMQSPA
Human plasma kallikrein, sequence (P03952 20-390 partner): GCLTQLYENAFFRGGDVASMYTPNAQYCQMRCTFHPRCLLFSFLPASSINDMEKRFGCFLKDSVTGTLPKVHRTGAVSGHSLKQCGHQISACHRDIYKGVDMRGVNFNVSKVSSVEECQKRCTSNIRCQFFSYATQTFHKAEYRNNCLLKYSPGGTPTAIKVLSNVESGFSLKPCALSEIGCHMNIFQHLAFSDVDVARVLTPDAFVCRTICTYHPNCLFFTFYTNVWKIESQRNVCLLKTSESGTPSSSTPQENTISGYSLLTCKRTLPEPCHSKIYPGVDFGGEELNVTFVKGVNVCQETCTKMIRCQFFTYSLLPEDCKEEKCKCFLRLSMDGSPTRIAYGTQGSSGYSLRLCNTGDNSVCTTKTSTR

COc1c(N2C[C@H]3C[C@H]3C2=O)ncc(C(C)n2cc(NC(=O)c3cncc(-c4c(C(F)F)ccc(Cl)c4F)n3)cn2)c1C (single isomer, unassigned) [Example 155, 6-(3-Chloro-6-(difluoromethyl)-2-fluorophenyl)-N-(1-((S or R)-1-(5-methoxy-4-methyl-6-((1R,5S)-2-oxo-3-azabicyclo[3.1.0]hexan-3-yl)pyridin-3-yl)ethyl)-1H-pyrazol-4-yl)pyrazine-2-carboxamide]
IC50 (Human plasma kallikrein): 7.1 nM
IC50 (human Factor XIa): 8200 nM

Cc1nc(N2C[C@H]3C[C@H]3C2=O)ncc1C(C)n1cc(NC(=O)c2nc(-c3c(C(F)F)ccc(Cl)c3F)cnc2CO)cn1 (single isomer, unassigned) [Example 195, 6-(3-Chloro-6-(difluoromethyl)-2-fluorophenyl)-3-(hydroxymethyl)-N-(1-((R or S)-1-(4-methyl-2-((1R,5S)-2-oxo-3-azabicyclo[3.1.0]hexan-3-yl)pyrimidin-5-yl)ethyl)-1H-pyrazol-4-yl)pyrazine-2-carboxamide]
IC50 (Human plasma kallikrein): 18.2 nM
IC50 (human Factor XIa): 765 nM

Cc1c(C(C)n2cc(NC(=O)c3cncc(-c4c(OC(F)F)ccc(Cl)c4F)n3)cn2)cnc(N2C[C@H]3C[C@H]3C2=O)c1F (single isomer, unassigned) [Example 133, 6-(3-Chloro-6-(difluoromethoxy)-2-fluorophenyl)-N-(1-((S or R)-1-(5-fluoro-4-methyl-6-((1R,5S)-2-oxo-3-azabicyclo[3.1.0]hexan-3-yl)pyridin-3-yl)ethyl)-1i-pyrazol-4-yl)pyrazine-2-carboxamide]
IC50 (Human plasma kallikrein): 0.6 nM
IC50 (human Factor XIa): 510 nM

COc1ncc(-c2c(OC(F)F)ccc(Cl)c2F)nc1C(=O)Nc1cnn(C(C)c2cnc(N3C[C@H]4C[C@H]4C3=O)c(C)n2)c1 (single isomer, unassigned) [Example 241, 6-(3-Chloro-6-(difluoromethoxy)-2-fluorophenyl)-3-methoxy-N-(1-((S or R)-1-(6-methyl-5-((1R,5S)-2-oxo-3-azabicyclo[3.1.0]hexan-3-yl)pyrazin-2-yl)ethyl)-1H-pyrazol-4-yl)pyrazine-2-carboxamide]
IC50 (Human plasma kallikrein): 0.7 nM
IC50 (human Factor XIa): 377 nM

Cc1cc([C@H](C)n2cc(NC(=O)c3nc(-c4c(OC(F)F)ccc(Cl)c4F)cnc3CO)cn2)cnc1N1C[C@H]2C[C@H]2C1=O [Example 226]
IC50 (Human plasma kallikrein): 0.4 nM
IC50 (human Factor XIa): 41 nM

Cc1ncc(-c2c(C(F)F)ccc(Cl)c2F)nc1C(=O)Nc1cnn(C(C)c2ccc(N3CC4CC4C3=O)nc2)c1 (single isomer, unassigned) [Example 75, 6-(3-Chloro-6-(difluoromethyl)-2-fluorophenyl)-3-methyl-N-(1-((R or S)-1-(6-((1R,5S or 1S,5R)-2-oxo-3-azabicyclo[3.1.0]hexan-3-yl)pyridin-3-yl)ethyl)-1H-pyrazol-4-yl)pyrazine-2-carboxamide]
IC50 (Human plasma kallikrein): 4.8 nM
IC50 (human Factor XIa): > 10000 nM

Cc1c(C(C)n2cc(NC(=O)c3cncc(-c4c(OC(F)F)ccc(Cl)c4F)n3)cn2)cnc(N2C[C@H]3C[C@H]3C2=O)c1C (single isomer, unassigned) [Example 104, 6-(3-Chloro-6-(difluoromethoxy)-2-fluorophenyl)-N-(1-((S or R)-1-(4,5-dimethyl-6-((1R,5S)-2-oxo-3-azabicyclo[3.1.0]hexan-3-yl)pyridin-3-yl)ethyl)-1H-pyrazol-4-yl)pyrazine-2-carboxamide]
IC50 (Human plasma kallikrein): 1.2 nM
IC50 (human Factor XIa): 420 nM

Cc1cc(C(C)n2cc(NC(=O)c3nc(-c4c(C(F)F)ccc(Cl)c4F)cnc3C(C)O)cn2)nnc1N1C[C@H]2C[C@H]2C1=O (single isomer, unassigned) [Example 230, 6-(3-Chloro-6-(difluoromethyl)-2-fluorophenyl)-3-((S or R)-1-hydroxyethyl)-N-(1-((S or R)-1-(5-methyl-6-((1R,5S)-2-oxo-3-azabicyclo[3.1.0]hexan-3-yl)pyridazin-3-yl)ethyl)-1H-pyrazol-4-yl)pyrazine-2-carboxamide]
IC50 (Human plasma kallikrein): 1.1 nM
IC50 (human Factor XIa): 1330 nM

C[C@@H](c1cnc(N2C[C@H]3C[C@H]3C2=O)nc1)n1cc(NC(=O)c2nc(-c3c(C(F)F)ccc(Cl)c3F)cnc2C(C)(C)O)cn1 [Example 181, 6-(3-Chloro-6-(difluoromethyl)-2-fluorophenyl)-3-(2-hydroxypropan-2-yl)-N-(1-((S)-1-(2-((1R,5S)-2-oxo-3-azabicyclo[3.1.0]hexan-3-yl)pyrimidin-5-yl)ethyl)-1H-pyrazol-4-yl)pyrazine-2-carboxamide]
IC50 (Human plasma kallikrein): 37.1 nM
IC50 (human Factor XIa): > 10000 nM

CC(c1ccc(N2C[C@H]3C[C@H]3C2=O)cc1)n1cc(NC(=O)c2cncc(-c3c(C(F)F)ccc(Cl)c3F)n2)cn1 (mixture of isomers) [Example 69, 6-(3-Chloro-6-(difluoromethyl)-2-fluorophenyl)-N-(1-((S and R)-1-(4-((1R,5S)-2-oxo-3-azabicyclo[3.1.0]hexan-3-yl)phenyl)ethyl)-1H-pyrazol-4-yl)pyrazine-2-carboxamide]
IC50 (Human plasma kallikrein): 10 nM
IC50 (human Factor XIa): > 10000 nM

COc1c(N2C[C@H]3C[C@H]3C2=O)ncc(C(C)n2cc(NC(=O)c3cncc(-c4c(C(F)F)ccc(Cl)c4F)n3)cn2)c1C (single isomer, unassigned) [Example 154, 6-(3-Chloro-6-(difluoromethyl)-2-fluorophenyl)-N-(1-((R or S)-1-(5-methoxy-4-methyl-6-((1R,5S)-2-oxo-3-azabicyclo[3.1.0]hexan-3-yl)pyridin-3-yl)ethyl)-1H-pyrazol-4-yl)pyrazine-2-carboxamide]
IC50 (Human plasma kallikrein): 0.3 nM
IC50 (human Factor XIa): 661 nM

Cc1ncc(-c2c(C(F)F)ccc(Cl)c2F)nc1C(=O)Nc1cnn(C(C)c2cnc(N3C[C@H]4C[C@H]4C3=O)c(F)c2)c1 (single isomer, unassigned) [Example 52, 6-(3-Chloro-6-(difluoromethyl)-2-fluorophenyl)-N-(1-((R or S)-1-(S-fluoro-6-((1R,5S)-2-oxo-3-azabicyclo[3.1.0]hexan-3-yl)pyridin-3-yl)ethyl)-1H-pyrazol-4-yl)-3-methylpyrazine-2-carboxamide]
IC50 (Human plasma kallikrein): 1.1 nM
IC50 (human Factor XIa): 4830 nM

Cc1c(C(C)n2cc(NC(=O)c3cncc(-c4c(OC(F)F)ccc(Cl)c4F)n3)cn2)cnc(N2C[C@H]3C[C@H]3C2=O)c1F (single isomer, unassigned) [Example 134, 6-(3-Chloro-6-(difluoromethoxy)-2-fluorophenyl)-N-(1-((R or S)-1-(5-fluoro-4-methyl-6-((1R,5S)-2-oxo-3-azabicyclo[3.1.0]hexan-3-yl)pyridin-3-yl)ethyl)-1H-pyrazol-4-yl)pyrazine-2-carboxamide]
IC50 (Human plasma kallikrein): 13.9 nM
IC50 (human Factor XIa): 5570 nM

Cc1ncc(-c2c(C(F)F)ccc(Cl)c2F)nc1C(=O)Nc1cnn(C(CO)c2cnc(N3C[C@H]4C[C@H]4C3=O)nc2)c1 (single isomer, unassigned) [Example 164, 6-(3-Chloro-6-(difluoromethyl)-2-fluorophenyl)-N-(1-((R or S)-2-hydroxy-1-(2-((1R,5S)-2-oxo-3-azabicyclo[3.1.0]hexan-3-yl)pyrimidin-5-yl)ethyl)-1H-pyrazol-4-yl)-3-methylpyrazine-2-carboxamide]
IC50 (Human plasma kallikrein): 5.4 nM
IC50 (human Factor XIa): 4890 nM

Cc1ncc(-c2c(C(F)F)ccc(Cl)c2F)nc1C(=O)Nc1cnn(Cc2cnc(N3C[C@H]4C[C@H]4C3=O)c(F)c2)c1 [Example 82, 6-(3-Chloro-6-(difluoromethyl)-2-fluorophenyl)-N-(1-((5-fluoro-6-((1R,5S)-2-oxo-3-azabicyclo[3.1.0]hexan-3-yl)pyridin-3-yl)methyl)-1H-pyrazol-4-yl)-3-methylpyrazine-2-carboxamide]
IC50 (Human plasma kallikrein): 1.8 nM
IC50 (human Factor XIa): 935 nM

COc1cc(C(C)n2cc(NC(=O)c3nc(-c4c(C(F)F)ccc(Cl)c4F)cnc3C)cn2)cnc1N1C[C@H]2C[C@H]2C1=O (single isomer, unassigned) [Example 219, 6-(3-Chloro-6-(difluoromethyl)-2-fluorophenyl)-N-(1-((R or S)-1-(5-methoxy-6-((1R,5S)-2-oxo-3-azabicyclo[3.1.0]hexan-3-yl)pyridin-3-yl)ethyl)-1H-pyrazol-4-yl)-3-methylpyrazine-2-carboxamide]
IC50 (Human plasma kallikrein): 0.3 nM
IC50 (human Factor XIa): 549 nM

Cc1ncc(-c2c(C#N)ccc(Cl)c2F)nc1C(=O)Nc1cnn(C(C)c2cnc(N3C[C@H]4C[C@H]4C3=O)c(C)n2)c1 (single isomer, unassigned) [Example 234, 6-(3-Chloro-6-cyano-2-fluorophenyl)-3-methyl-N-(1-((R or S)-1-(6-methyl-5-((1R,5S)-2-oxo-3-azabicyclo[3.1.0]hexan-3-yl)pyrazin-2-yl)ethyl)-1H-pyrazol-4-yl)pyrazine-2-carboxamide]
IC50 (Human plasma kallikrein): 1 nM
IC50 (human Factor XIa): 679 nM

Cc1cc(C(C)n2cc(NC(=O)c3nc(-c4c(C(F)F)ccc(Cl)c4F)cnc3C(C)O)cn2)nnc1N1C[C@H]2C[C@H]2C1=O (single isomer, unassigned) [Example 229, 6-(3-Chloro-6-(difluoromethyl)-2-fluorophenyl)-3-((R or S)-1-hydroxyethyl)-N-(1-((S or R)-1-(5-methyl-6-((1R,5S)-2-oxo-3-azabicyclo[3.1.0]hexan-3-yl)pyridazin-3-yl)ethyl)-1H-pyrazol-4-yl)pyrazine-2-carboxamide]
IC50 (Human plasma kallikrein): 0.37 nM
IC50 (human Factor XIa): 178 nM

CC(c1ccc(N2C[C@H]3C[C@H]3C2=O)nc1)n1cc(NC(=O)c2cncc(-c3c(C#N)ccc(Cl)c3F)n2)cn1 (single isomer, unassigned) [Example 89, 6-(3-Chloro-6-cyano-2-fluorophenyl)-N-(1-((S or R)-1-(6-((1R,5S)-2-oxo-3-azabicyclo[3.1.0]hexan-3-yl)pyridin-3-yl)ethyl)-1H-pyrazol-4-yl)pyrazine-2-carboxamide]
IC50 (Human plasma kallikrein): 31.3 nM
IC50 (human Factor XIa): > 10000 nM

O=C(Nc1cnn(Cc2cnc(N3C[C@H]4C[C@H]4C3=O)nc2)c1)c1cncc(-c2c(C(F)F)ccc(Cl)c2F)n1 [Example 25, 6-(3-Chloro-6-(difluoromethyl)-2-fluorophenyl)-N-(1-((2-((1R,5S)-2-oxo-3-azabicyclo-[3.1.0]hexan-3-yl)pyrimidin-5-yl)methyl)-1H-pyrazol-4-yl)pyrazine-2-carboxamide]
IC50 (Human plasma kallikrein): 27.7 nM
IC50 (human Factor XIa): 4690 nM
